For data set [1], the target named is T1, NK1R (Homo sapiens, UniProt P25103).
Method: (§1) Human embryonic kidney cells (HEK293) were maintained at 37°C in a humidified 5% CO2 atmosphere and cultured with Dulbecco’s modified Eagle’s medium (Invitrogen, Chicago, IL) containing 10% fetal bovine serum, 100 U/mL penicillin, and 100 µg/mL streptomycin. Cells were seeded into 96-well plates and grown to ∼80% confluence. Cells were transfected for 24 hours using polyethylenimine (Sigma, Atlanta, GA) in serum-free medium [17] with cDNAs encoding, a) tethered ligand (where noted), b) 3 ng of indicated receptor, c) 25 ng of a 5X-SRE-Luc-pest (pGL4.33), a luciferase reporter construct under the control of a serum response element (Promega, Madison, WI), and d) 10 ng of β-galactosidase to control for transfection efficiency.
(§2) The expression of membrane tethered Substance P, CCK4, and CCK4-Gly was assessed by ELISA using an antibody directed to the myc epitope tag within the MTL cDNA construct [8].
(§3) Tethered ligand induced signaling was assessed in HEK293 cells 24 hours after transfection. For soluble and lipidated peptides, 20 hours following transfection, cells were stimulated in serum-free medium for an additional 4 hours. […] With tethered ligands, antagonists were added 4 hours after transfection; activity was assessed following an additional 20 hour incubation. Quantification of luciferase and β-galactosidase activities were performed as previously described [6]. Data were analyzed by nonlinear curve fitting using Graph Pad Prism 5.0 software.
(§4) HEK293 cells were transiently cotransfected for 24 hours with cDNAs encoding: the designated NK receptor subtype, a 5X-SRE-Luc-pest reporter construct (pGL4.33), tethered ligand (for MTL assays, left panels), and a β-galactosidase gene to control for transfection variability. For assessment of SMAL induced signaling, cells were stimulated with ligand for an additional 4 hours. […] Data represent the mean ± SEM from 3 independent experiments, each performed in triplicate.
In data set [2] the target is T1, NK1R. Nature of the data set: cell-based.
Method: as §1, §2, §3, §4
Data set [3] has as its target T2, CCK2R (Homo sapiens, UniProt P32239).
T2 sequence (P32239 1-447): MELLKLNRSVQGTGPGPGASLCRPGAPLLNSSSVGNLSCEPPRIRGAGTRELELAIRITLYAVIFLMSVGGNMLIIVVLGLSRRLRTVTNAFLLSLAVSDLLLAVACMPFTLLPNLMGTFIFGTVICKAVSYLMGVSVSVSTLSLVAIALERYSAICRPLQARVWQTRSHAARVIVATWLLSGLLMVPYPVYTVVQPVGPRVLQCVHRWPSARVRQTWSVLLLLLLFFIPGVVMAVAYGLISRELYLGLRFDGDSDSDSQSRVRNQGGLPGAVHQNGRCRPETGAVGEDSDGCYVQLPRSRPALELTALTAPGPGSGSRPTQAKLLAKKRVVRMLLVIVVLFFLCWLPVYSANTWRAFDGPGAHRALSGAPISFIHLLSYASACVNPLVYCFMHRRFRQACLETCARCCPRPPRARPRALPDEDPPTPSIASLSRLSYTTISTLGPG
Kind of data set: SRE-luciferase reporter agonist assay in HEK293 cells transfected with CCK2R. Conditions: for CCK2R mediated signaling (agonist activity, in words): HEK293, SRE-Luc, relative to 10 µM s-CCK4-NH2, MTL coexpressed 24 hours, peptides 4 hours. (In general: Reporter assays use an easily measured gene product as a stand-in for the process of interest.)
Method: as §1
The CCK2 receptor was cloned as previously reported [18]; the CCK1R cDNA was PCR amplified based on a published sequence [19]. Each receptor cDNA encoding the human sequence was subcloned into pcDNA1.1. […] The nucleotide sequences of all receptor and tethered ligand coding regions were confirmed by automated DNA sequencing and analyzed using Vector NTI software (Invitrogen, Chicago, IL). The expression of membrane tethered Substance P, CCK4, and CCK4-Gly was assessed by ELISA using an antibody directed to the myc epitope tag within the MTL cDNA construct [8].
as §3
HEK293 cells were transiently cotransfected with cDNAs encoding: the designated CCK receptor subtype, a 5X-SRE-Luc-pest reporter construct (pGL4.33), tethered ligand (as indicated) and a β-galactosidase gene to control for transfection efficiency. Tethered ligand activity was measured 24 hours following transfection. To assess activity of soluble and lipidated CCK4-Gly, cells were stimulated for an additional 4 hours with ligand. […] Data represent the mean ± SEM from 3 independent experiments, each performed in triplicate.

Data set [4] has as its target T3, CCK1R (Homo sapiens, UniProt P32238).
T3 sequence (P32238 1-428): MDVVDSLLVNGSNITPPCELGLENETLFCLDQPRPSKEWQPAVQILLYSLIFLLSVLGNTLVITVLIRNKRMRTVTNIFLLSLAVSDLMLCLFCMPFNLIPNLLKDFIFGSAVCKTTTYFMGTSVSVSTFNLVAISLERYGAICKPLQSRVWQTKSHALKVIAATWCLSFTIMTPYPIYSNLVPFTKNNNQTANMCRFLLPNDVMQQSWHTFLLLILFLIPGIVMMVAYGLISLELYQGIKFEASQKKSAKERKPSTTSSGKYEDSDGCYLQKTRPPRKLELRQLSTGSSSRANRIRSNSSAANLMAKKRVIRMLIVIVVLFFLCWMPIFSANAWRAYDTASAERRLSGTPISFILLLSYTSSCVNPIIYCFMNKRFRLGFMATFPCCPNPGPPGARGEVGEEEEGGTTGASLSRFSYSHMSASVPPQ
Kind of data set: SRE-luciferase reporter agonist assay in HEK293 cells transfected with CCK1R. Conditions: HEK293, SRE-Luc; relative to 10 µM s-CCK8-NH2; MTL coexpressed 24 hours, peptides 4 hours.
Method: Human embryonic kidney cells (HEK293) were maintained at 37°C in a humidified 5% CO2 atmosphere and cultured with Dulbecco’s modified Eagle’s medium (Invitrogen, Chicago, IL) containing 10% fetal bovine serum, 100 U/mL penicillin, and 100 µg/mL streptomycin. Cells were seeded into 96-well plates and grown to ∼80% confluence. […]
The CCK2 receptor was cloned as previously reported [18]; the CCK1R cDNA was PCR amplified based on a published sequence [19]. […] The nucleotide sequences of all receptor and tethered ligand coding regions were confirmed by automated DNA sequencing and analyzed using Vector NTI software (Invitrogen, Chicago, IL). The expression of membrane tethered Substance P, CCK4, and CCK4-Gly was assessed by ELISA using an antibody directed to the myc epitope tag within the MTL cDNA construct [8].
(§5) Tethered ligand induced signaling was assessed in HEK293 cells 24 hours after transfection. […] With tethered ligands, antagonists were added 4 hours after transfection; activity was assessed following an additional 20 hour incubation. Quantification of luciferase and β-galactosidase activities were performed as previously described [6]. Data were analyzed by nonlinear curve fitting using Graph Pad Prism 5.0 software. […]

For data set [5], the target named is T2, CCK2R. Kind of data set: Antagonist inhibition of agonist-induced CCK2R signaling (SRE-luciferase, HEK293). The class given is cell-based. Set-up: expressed in transfected cells; host or cells: HEK293. As for the experimental part:
Figure 6 YM022 inhibits CCK2R signaling induced by tethered CCK4-Gly, soluble CCK4-Gly, or lipidated CCK4-Gly. A) YM022 blocks tethered CCK4-Gly mediated CCK2R signaling. […] Four hours following transfection, cells were with treated with increasing concentrations of YM022 for 20 hours. […] B) YM022 blocks s-CCK4-Gly-COOH and l-CCK4-Gly-COOH mediated activation of CCK2R. HEK293 cells were transfected as indicated above. Twenty hours after transfection, cells were with treated with increasing concentrations of YM022 together with either 10 µM of l-CCK4-Gly-COOH or s-CCK4-Gly-COOH.

The target of data set [6] is T4, NK2R (Homo sapiens, UniProt P21452).
T4 sequence (P21452 1-398): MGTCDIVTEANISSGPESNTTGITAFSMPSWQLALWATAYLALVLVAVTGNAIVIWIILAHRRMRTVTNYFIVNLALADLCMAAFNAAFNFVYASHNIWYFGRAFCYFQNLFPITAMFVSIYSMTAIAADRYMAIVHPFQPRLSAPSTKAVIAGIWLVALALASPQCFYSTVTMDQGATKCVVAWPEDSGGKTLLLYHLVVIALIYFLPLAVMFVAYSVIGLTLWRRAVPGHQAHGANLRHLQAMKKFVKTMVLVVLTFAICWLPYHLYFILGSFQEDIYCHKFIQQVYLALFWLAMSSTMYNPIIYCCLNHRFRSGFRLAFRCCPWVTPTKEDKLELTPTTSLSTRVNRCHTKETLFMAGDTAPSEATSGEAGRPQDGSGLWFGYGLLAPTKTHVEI
Nature of the data set: SRE-luciferase reporter agonist assay in HEK293 cells transfected with NK2R. The following applies: HEK293, SRE-Luc; relative to 1 µM s-SubP-NH2; MTL coexpressed 24 hours, peptides 4 hours.
Method: as §1, §2, §5

The target in data set [7] is T5, NK3R (Homo sapiens, UniProt P29371).
T5 sequence (P29371 1-465): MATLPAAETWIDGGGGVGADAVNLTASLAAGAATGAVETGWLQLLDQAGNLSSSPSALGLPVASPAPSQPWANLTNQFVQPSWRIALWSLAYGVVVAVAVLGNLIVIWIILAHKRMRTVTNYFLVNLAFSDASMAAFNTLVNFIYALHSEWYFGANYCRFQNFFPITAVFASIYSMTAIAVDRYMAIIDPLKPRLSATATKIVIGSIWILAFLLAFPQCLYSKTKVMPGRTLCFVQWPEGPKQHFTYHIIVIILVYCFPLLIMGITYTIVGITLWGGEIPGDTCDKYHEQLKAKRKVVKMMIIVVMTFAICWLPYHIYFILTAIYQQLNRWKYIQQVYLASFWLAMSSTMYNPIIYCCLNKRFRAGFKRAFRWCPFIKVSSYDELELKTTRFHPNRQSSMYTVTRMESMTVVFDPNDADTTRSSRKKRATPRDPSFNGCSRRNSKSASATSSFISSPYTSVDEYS
Kind of data set: SRE-luciferase reporter agonist assay in HEK293 cells transfected with NK3R. Conditions: HEK293, SRE-Luc; relative to 1 µM s-SubP-NH2; MTL coexpressed 24 hours, peptides 4 hours.
Method: as §1, §2, §5

Read-outs that look alike come from different tables or passages of the source. Ends that are not written are not given here. Peptide text beside a SMILES is read from it. * marks the point of attachment. PEG8 = NCCOCCOCCOCCOCCOCCOCCOCCOCCC(=O)O; Palmitoyl = CCCCCCCCCCCCCCCC(=O)*

The results in this text go back to article PMC4229100, “A Two-Step Strategy to Enhance Activity of Low Potency Peptides” (PLoS ONE, 2014).

T1 sequence (P25103 whole entry): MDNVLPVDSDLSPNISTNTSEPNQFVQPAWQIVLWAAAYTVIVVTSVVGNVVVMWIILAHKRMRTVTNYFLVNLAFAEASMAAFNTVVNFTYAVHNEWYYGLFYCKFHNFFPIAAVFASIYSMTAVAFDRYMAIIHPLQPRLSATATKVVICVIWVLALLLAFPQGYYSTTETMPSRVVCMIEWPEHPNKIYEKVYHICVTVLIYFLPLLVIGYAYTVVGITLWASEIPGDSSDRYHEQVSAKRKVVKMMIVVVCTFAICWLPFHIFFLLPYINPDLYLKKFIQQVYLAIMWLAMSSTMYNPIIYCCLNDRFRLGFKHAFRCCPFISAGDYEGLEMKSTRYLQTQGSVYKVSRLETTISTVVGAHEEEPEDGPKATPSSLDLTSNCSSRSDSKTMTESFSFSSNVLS

Take `CCCCCCCCCCCCCCCC(=O)NCCOCCOCCOCCOCCOCCOCCOCCOCCC(=O)NCCCC[C@H](Nc1ccc([N+](=O)[O-])c2nonc12)C(=O)NCC(=O)NCC(=O)N[C@@H](CCCNC(=N)N)C(=O)N1CCC[C@H]1C(=O)N[C@@H](CCCCN)C(=O)N1CCC[C@H]1C(=O)N[C@@H](CCC(N)=O)C(=O)N[C@@H](CCC(N)=O)C(=O)N[C@@H](Cc1ccccc1)C(=O)N[C@@H](Cc1ccccc1)C(=O)NCC(=O)N[C@@H](CC(C)C)C(=O)N[C@@H](CCSC)C(N)=O` [l-SubP-NH2]: in data set [1], the “NK1R mediated signaling (agonist activity, in words)” value is on record as “fully active” and the “Potency at NK1R compared with soluble counterpart (in words)” value is “more potent than s-SubP-NH2”. For the same compound, in data set [2], the concentration giving a half-maximal response (EC50) – broadly, the concentration at which the effect is half-maximal – amounted to 0.4 nM.

As to WMDFG [s-CCK4-Gly-COOH], in data set [3], the half-maximal effective concentration (EC50) is more than 1000 nM.

`CCCCCCCCCCCCCCCC(=O)NCCOCCOCCOCCOCCOCCOCCOCCOCCC(=O)NCC(=O)NCC(=O)N[C@@H](Cc1c[nH]c2ccccc12)C(=O)N[C@@H](CCSC)C(=O)N[C@@H](CC(=O)O)C(=O)N[C@@H](Cc1ccccc1)C(=O)NCC(=O)O` [l-CCK4-Gly-COOH] ({Palmitoyl-PEG8}-GGWMDFG-OH): in data set [3], the EC50 is more than 1000 nM and the “CCK2R mediated signaling (agonist activity, in words)” value is recorded as “activated”. For the same compound, the “CCK1R mediated signaling (agonist activity, in words)” value in data set [4] is given as “lacked activity”.

In the case of `Cc1cccc(NC(=O)N[C@@H]2N=C(c3ccccc3)c3ccccc3N(CC(=O)c3ccccc3C)C2=O)c1` [YM022, (R)-1-[2,3-dihydro-1-(2′-methylphenacyl)-2-oxo-5-phenyl-1H-1,4-benzodiazepin-3-yl]-3-(3-methylphenyl)urea], the 50% inhibitory concentration (IC50) – broadly, the concentration at which inhibition is half-maximal – in data set [5] (agonist 10 µM l-CCK4-Gly-COOH, 4 hours, read-out: IC50 for inhibition of l-CCK4-Gly-COOH induced CCK2R signaling) turned out to be 10.2 nM; in data set [5] (agonist 10 µM s-CCK4-Gly-COOH, 4 hours, read-out: IC50 for inhibition of s-CCK4-Gly-COOH induced CCK2R signaling), 0.84 nM; in data set [5] (agonist tCCK4-Gly (coexpressed MTL), antagonist added 4 hours after transfection for 20 hours, read-out: IC50 for inhibition of tCCK4-Gly induced CCK2R signaling), 0.54 nM.

`CCCCCCCCCCCCCCCC(=O)NCCOCCOCCOCCOCCOCCOCCOCCOCCC(=O)NCC(=O)NCC(=O)N[C@@H](Cc1c[nH]c2ccccc12)C(=O)N[C@@H](CCSC)C(=O)N[C@@H](CC(=O)O)C(=O)N[C@@H](Cc1ccccc1)C(N)=O` [l-CCK4-NH2] ({Palmitoyl-PEG8}-GGWMDF-NH2): in data set [3], a half-maximal response (EC50) required 2.6 nM and the “CCK2R mediated signaling (agonist activity, in words)” value is on record as “does not fully activate”.

As to `CCCCCCCCCCCCCCCC(=O)NCCOCCOCCOCCOCCOCCOCCOCCOCCC(=O)NCCCC[C@H](NC(C)=O)C(=O)NCC(=O)NCC(=O)N[C@@H](CCCNC(=N)N)C(=O)N1CCC[C@H]1C(=O)N[C@@H](CCCCN)C(=O)N1CCC[C@H]1C(=O)N[C@@H](CCC(N)=O)C(=O)N[C@@H](CCC(N)=O)C(=O)N[C@@H](Cc1ccccc1)C(=O)N[C@@H](Cc1ccccc1)C(=O)NCC(=O)N[C@@H](CC(C)C)C(=O)N[C@@H](CCSC)C(=O)O` [l-SubP-COOH], the “NK1R mediated signaling (agonist activity, in words)” value in data set [1] (HEK293, SRE-Luc, relative to 1 µM s-SubP-NH2, MTL coexpressed 24 hours, peptides 4 hours) is listed as “activated”. Further, in data set [2], the EC50 came to 6.1 nM. For the same compound, the “NK2R mediated signaling (agonist activity, in words)” value in data set [6] is reported as “no signaling was observed”. The “NK3R mediated signaling (agonist activity, in words)” value in data set [7] is on record as “activated”.
